One data set addresses D3 (Homo sapiens, UniProt P35462). In words: GTPγS scintillation proximity assay (GTPγS-SPA), antagonist format. The data set is classed as biochemical. The note with it: higher than Enantiomer 1.
Another data set has as its target dopamine D3 receptors (Homo sapiens, UniProt P35462). The data set can be described thus: affinity for dopamine receptors (D3). It counts as binding.
The target in the next data set is D2 receptors (Homo sapiens, UniProt P14416). In words: affinity for dopamine receptors (D2). The data set is classed as binding.
Data set [1] is described as follows: solid state accelerated stability (appearance, assay and total impurities by HPLC).
Description: The solid state accelerated condition adopted were 40° C./75% RH (Relative Humidity) closed and exposed, and 50° C./amb RH (Ambient Relative Humidity) closed under air atmosphere.
At one month time point the following samples have been analysed for the appearance, assay and total impurities.
Assay and total impurities tests have been performed by HPLC with fast gradient method.

Structures can show the parent of a compound that is named as a salt.

dopamine D3 receptors, sequence (P35462 whole entry): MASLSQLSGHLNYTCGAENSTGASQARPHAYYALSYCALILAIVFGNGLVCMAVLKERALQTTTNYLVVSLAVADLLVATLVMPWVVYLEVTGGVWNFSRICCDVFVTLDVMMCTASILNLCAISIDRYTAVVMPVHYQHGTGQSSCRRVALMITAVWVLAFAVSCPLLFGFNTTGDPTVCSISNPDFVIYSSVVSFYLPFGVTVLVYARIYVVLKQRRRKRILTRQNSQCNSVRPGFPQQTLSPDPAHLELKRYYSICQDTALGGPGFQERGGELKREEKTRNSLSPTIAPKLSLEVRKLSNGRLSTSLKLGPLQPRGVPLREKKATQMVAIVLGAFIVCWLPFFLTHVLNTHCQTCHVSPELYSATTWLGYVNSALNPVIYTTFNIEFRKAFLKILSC
D3, sequence (P35462 whole entry): as above
D2 receptors, sequence (P14416 whole entry): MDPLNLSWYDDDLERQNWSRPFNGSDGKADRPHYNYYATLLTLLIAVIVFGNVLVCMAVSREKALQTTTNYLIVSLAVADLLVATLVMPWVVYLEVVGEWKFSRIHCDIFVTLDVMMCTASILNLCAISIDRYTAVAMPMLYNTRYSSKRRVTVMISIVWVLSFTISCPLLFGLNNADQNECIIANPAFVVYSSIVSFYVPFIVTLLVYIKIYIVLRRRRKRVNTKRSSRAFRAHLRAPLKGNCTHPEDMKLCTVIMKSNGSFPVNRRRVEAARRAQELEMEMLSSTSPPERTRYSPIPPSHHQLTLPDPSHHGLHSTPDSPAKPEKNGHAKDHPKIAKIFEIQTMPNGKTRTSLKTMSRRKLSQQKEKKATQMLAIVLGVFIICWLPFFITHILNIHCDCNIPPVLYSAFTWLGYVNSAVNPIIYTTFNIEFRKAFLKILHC

On to `Cc1ncoc1-c1nnc(SCCCN2C[C@@H]3C[C@]3(c3ccc(C(F)(F)F)cc3F)C2)n1C` (single isomer, unassigned) [Enantiomer 2], for which the “fpKi (D3) difference” value at D3 was over 1 log-unit. Further, the “affinity for dopamine D3 receptors” value on dopamine D3 receptors is “exhibit affinity”. Also, the “affinity for dopamine D3 versus D2 receptors” value at dopamine D3 receptors (D3 compared with D2) is “greater affinity for dopamine D3 than for D2 receptors”. Moreover, the “affinity for dopamine D2 receptors” value on D2 receptors is “exhibit affinity”.

On to `Cc1ncoc1-c1nnc(SCCCN2C[C@@H]3C[C@]3(c3ccc(C(F)(F)F)cc3F)C2)n1C.O=C(O)C(O)C(O)C(=O)O` [Example 1, (1S,5R)-1-[2-fluoro-4-(trifluoromethyl)phenyl]-3-(3-{[4-methyl-5-(4-methyl-1,3-oxazol-5-yl)-4H-1,2,4-triazol-3-yl]thio}propyl)-3-azabicyclo[3.1.0]hexane (2R,3R) tartrate], for which the “stability in comparison with the hydrochloride salt” value in data set [1] is listed as “improved stability”. In addition, the total impurities result in data set [1] (after 1 month, at any stability condition tested) is listed as “around 0.5 % a/a”.

As to `Cc1ncoc1-c1nnc(SCCCN2C[C@@H]3C[C@]3(c3ccc(C(F)(F)F)cc3F)C2)n1C` [Preparation 7, (1S,5R)-1-[2-Fluoro-4-(trifluoromethyl)phenyl]-3-(3-{[4-methyl-5-(4-methyl-1,3-oxazol-5-yl)-4H-1,2,4-triazol-3-yl]thio}propyl)-3-azabicyclo[3.1.0]hexane hydrochloride], the “change of total impurities” value in data set [1] (at any investigated stability condition) is “increase of total impurities”.

`Cc1ncoc1-c1nnc(SCCCN2CC3CC3(c3ccc(C(F)(F)F)cc3F)C2)n1C` (centres unmarked) [the tartrate, 1-[2-fluoro-4-(trifluoromethyl)phenyl]-3-(3-{[4-methyl-5-(4-methyl-1,3-oxazol-5-yl)-4H-1,2,4-triazol-3-yl]thio}propyl)-3-azabicyclo[3.1.0]hexane]: the “stability in comparison with the hydrochloride salt” value in data set [1] was “improved stability”.

(Values after patent US20080058398A1, “Compounds” (priority 2006, published 2008).)
